{"source": "patent US20240366693A1", "about": "“COMPOSITIONS FOR ENHANCING IMMUNOTHERAPY EFFICACY IN COLORECTAL CANCER TREATMENT” (The Chinese University of Hong Kong, priority 2023, published 2024)", "key": {"CD4+ T cells": {"test_system": "CD4+ T cells", "assay": "Foxp3+ Treg differentiation of CD4+ T cells in vitro", "format": "cell-based, mouse", "method": "T cells were isolated from spleens of tumour-bearing mice by negative selection using magnetic cell separation (EasySep mouse T cell isolation kit, CD8+ T cell isolation kit or CD4+ CD25+ Regulatory T cell Isolation Kit II; STEMCELL Technologies, Vancouver, Canada). Isolated T cells were cultured in Roswell Park Memorial Institute 1640 medium supplemented with 10% FBS, 50 μM β-mercaptoethanol, 10 ng/ml mouse recombinant interleukin-2 (IL-2), 0.1 ng/mL transforming growth factor β (TGFβ) and activated with Dynabeads mouse anti-CD3/CD28 beads (Thermo Fisher Scientific, Waltham, MA) for 72 hours. Cells were then collected for analysis."}, "MC-38": {"test_system": "MC-38", "assay": "MC38 rectum orthotopic tumour model", "format": "in vivo, mouse", "method": "A MSI type mouse CRC cell line, MC-38 cell mix [5×10^5 cells in 10 μL Matrigel (354248, Corning, Manassas, US) per mouse] was orthotopically implanted into the rectum of C57BL/6. […] RMP1-14, Bio X Cell, West Lebanon, US) or control IgG (100 μg per mouse, BP0089, Colone: 2A-3, Bio X Cell) was injected intraperitoneally into MC-38 bearing mice, and followed by total five injections with three days interval one week after MC38 implantation. For tumour-infiltrating immune cell analysis, tumour from MC-38 and CT-26 bearing rectal orthotopic mouse models was minced on ice and digested in PBS buffer containing 0.5 mg/mL collagenase IV and 0.25 mg/ml DNase I at 37° C. for 30 min. After digestion, tumour tissue was filtered through a 70 μm cell strainers, and then distributed into different panels. For the surface staining of MDSC, cells were stained with Brilliant Violet 605 anti-mouse CD45 antibody (30-F11) (103140, BioLegend), PerCP/Cyanine5.5 anti-mouse/human CD11b antibody (M1/70) (101228, BioLegend), PE anti-mouse Ly-6G/Ly-6C (Gr-1) antibody (RB6-8C5). MDSC was gated in CD45^+ CD11b^+ Gr-1^+. For CD8 functional markers staining, the procedures were similar with the in vitro T cell analysis. Antibodies used for staining are as following: Brilliant Violet 605 anti-mouse CD45 antibody (30-F11) (103140, BioLegend), PE anti-mouse CD3 antibody (17A2) (100206, BioLegend), Brilliant Violet anti-mouse CD8a antibody (53-6.7) (100738, BioLegend), PE/Cyanine5 anti-mouse CD4 antibody (GK1.5) (100410, BioLegend), PE/Cyanine7 anti-human/mouse Granzyme B recombinant antibody (QA16A02) (372214, BioLegend), FITC anti-mouse IFN-γ antibody (XMG1.2) (505806, BioLegend), Brilliant Violet 711 anti-moue TNF-α (MP6-XT22) (506349, BioLegend). Flow Cytometry was performed on FACSAria cell sorter (BD Biosciences, Franklin Lakes, US). Data was analyzed by FlowJo 10.4."}, "CT-26": {"test_system": "CT-26", "assay": "CT26 rectum orthotopic tumour model", "format": "in vivo, mouse", "excerpt": "CT-26 tumour-bearing BALB/c mice with the same setting and treatment of MC-38 orthotopic model was developed to evaluate the efficacy of αPD-1 antibody immunotherapy on microsatellite stable (MSS)-type colorectal cancer. All experimental procedures were approved by the Chinese University of Hong Kong Animal Ethics Committee.\nFor tumour-infiltrating immune cell analysis, tumour from MC-38 and CT-26 bearing rectal orthotopic mouse models was minced on ice and digested in PBS buffer containing 0.5 mg/mL collagenase IV and 0.25 mg/ml DNase I at 37° C. for 30 min. After digestion, tumour tissue was filtered through a 70 μm cell strainers, and then distributed into different panels. For the surface staining of MDSC, cells were stained with Brilliant Violet 605 anti-mouse CD45 antibody (30-F11) (103140, BioLegend), PerCP/Cyanine5.5 anti-mouse/human CD11b antibody (M1/70) (101228, BioLegend), PE anti-mouse Ly-6G/Ly-6C (Gr-1) antibody (RB6-8C5). MDSC was gated in CD45^+ CD11b^+ Gr-1^+. For CD8 functional markers staining, the procedures were similar with the in vitro T cell analysis. Antibodies used for staining are as following: Brilliant Violet 605 anti-mouse CD45 antibody (30-F11) (103140, BioLegend), PE anti-mouse CD3 antibody (17A2) (100206, BioLegend), Brilliant Violet anti-mouse CD8a antibody (53-6.7) (100738, BioLegend), PE/Cyanine5 anti-mouse CD4 antibody (GK1.5) (100410, BioLegend), PE/Cyanine7 anti-human/mouse Granzyme B recombinant antibody (QA16A02) (372214, BioLegend), FITC anti-mouse IFN-γ antibody (XMG1.2) (505806, BioLegend), Brilliant Violet 711 anti-moue TNF-α (MP6-XT22) (506349, BioLegend). Flow Cytometry was performed on FACSAria cell sorter (BD Biosciences, Franklin Lakes, US). Data was analyzed by FlowJo 10.4."}, "NF-κB": {"test_system": "NF-κB", "assay": "Phospho-NF-κB p65 in activated Jurkat E6.1 T cells", "format": "cell-based, human", "conditions": "TH1020", "method": "Phospho-NF-κB p65 (Ser536) Rabbit mAb (3033, Cell Signalling Technology, Danvers, US, 1:1000) and NF-κB p65 (D14E12) Rabbit mAb (8242, Cell Signalling Technology, Danvers, US, 1:1000) were used to measure NF-κB nuclear translocation in αCD3/αCD28/IL2 activated Jurkat E6.1 T cells.\nNormal human epithelial cell NCM460, human CRC cell lines HCT116, LoVo, SW480, and mouse CRC cell lines MC38 and CT26 were cultured in Dulbecco's Modified Eagle's Medium (DMEM) with 10% fetal bovine serum (FBS) and 1% penicillin-streptomycin (P/S). Jurkat E6.1 (TIB-152, ATCC) was cultured in RPMI-1640 supplied with 10% FBS and 1% penicillin-streptomycin and activated in 3 μg/ml anti-CD3 (300332, BioLgend, San Diego, US), 5 μg/ml anti-human CD28 (302934, BioLgend, San Diego, US) and 100 IU/ml recombinant human IL-2 (589104, BioLgend, San Diego, US) pre-coated wells for 3 days."}, "CD8+ T cells": {"test_system": "CD8+ T cells", "assay": "Cytotoxic CD8+ T cell markers, T cells from human PBMC", "format": "cell-based", "conditions": "TH1020 with butyrate", "method": "T cells isolated from healthy human peripheral blood mononuclear cells (PBMC) using immunomagnetic negative selection kit (17951, Stemcell Technologies, Vancouver, CA). Isolated T cells were then cultured in complete RPMI-1640 medium supplied with human CD3/CD28 magnet beads (11161D, Thermo Fisher Scientific, Waltham, US) and 30 U/ml recombinant human IL-2 (589104, BioLgend, San Diego, US) for expiation and activation for three days. Mouse T cells were isolated from the spleen of naïve mice and purified with Mouse T cell isolation kit (19851, Thermo Fisher Scientific, Waltham, US), cultured in complete RPMI-1640 medium with mouse CD3/CD28 beads (11456D, Thermo Fisher Scientific, Waltham, US) and 30 U/ml recombinant mouse IL-2 (575404, BioLegend, San Diego, US).\nCytotoxic CD8+ T cell markers Granzyme B, IFN-γ, TNF-α under the in vitro treatments of R.i CM, NaBu or TLR5 inbibitor TH1020 (HY-116961, MedChemExpress, Monmouth Junction, US) were analyzed with flow cytometry. Isolated human T cells were stimulated with 30 ng/ml PMA, 1 μg/ml ionomycin and 2.5 μg/ml monensin in complete RPMI-1640 medium at 37° C. for 4 hours. […]"}, "CT26": {"test_system": "CT26", "assay": "ICA model in CT26 syngeneic mice with anti-PD1 and Kyn supplementation", "format": "in vivo, mouse", "conditions": "Kyn 10 mg/kg i.p. twice weekly", "method": "For indolecarboxylic acid (ICA) model, ICA (18 mg/kg, Sigma-Aldrich, St. Louis, MO) was gavaged to mice daily. Tumour inoculation and dosing schedule of anti-PD1 or isotype control is the same as described above. After the outgrowth of palpable tumours, kynurenine (Kyn, 10 mg/kg, Sigma-Aldrich) was intraperitoneally injected into mice twice weekly."}, "human AHR protein": {"target": "T1, human AHR protein (Homo sapiens, UniProt P35869)", "T1 sequence (P35869 11-848)": "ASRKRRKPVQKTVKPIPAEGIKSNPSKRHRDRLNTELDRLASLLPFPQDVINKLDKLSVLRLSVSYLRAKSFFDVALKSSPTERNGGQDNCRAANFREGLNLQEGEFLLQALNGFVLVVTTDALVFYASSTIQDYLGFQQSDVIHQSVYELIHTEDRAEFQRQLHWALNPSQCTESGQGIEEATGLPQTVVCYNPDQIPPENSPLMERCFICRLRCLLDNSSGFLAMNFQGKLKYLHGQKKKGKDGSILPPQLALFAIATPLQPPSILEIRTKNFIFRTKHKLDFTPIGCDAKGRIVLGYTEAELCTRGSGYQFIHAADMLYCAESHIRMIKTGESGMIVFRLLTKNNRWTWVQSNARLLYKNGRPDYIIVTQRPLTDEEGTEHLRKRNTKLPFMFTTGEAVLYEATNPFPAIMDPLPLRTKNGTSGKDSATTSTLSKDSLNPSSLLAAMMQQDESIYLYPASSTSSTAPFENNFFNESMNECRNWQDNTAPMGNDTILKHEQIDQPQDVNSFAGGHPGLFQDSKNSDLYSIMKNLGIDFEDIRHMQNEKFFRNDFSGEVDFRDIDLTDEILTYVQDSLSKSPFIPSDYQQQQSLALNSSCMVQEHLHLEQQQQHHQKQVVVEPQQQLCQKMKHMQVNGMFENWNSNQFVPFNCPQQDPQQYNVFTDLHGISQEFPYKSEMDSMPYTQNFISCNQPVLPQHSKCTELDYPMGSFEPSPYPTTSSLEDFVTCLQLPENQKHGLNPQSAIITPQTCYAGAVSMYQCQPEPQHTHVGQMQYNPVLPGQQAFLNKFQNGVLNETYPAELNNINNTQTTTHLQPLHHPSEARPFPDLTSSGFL", "assay": "biochemical", "format": "binding", "excerpt": "We also performed the surface plasma resonance (SPR) assay to explore the interaction between ICA/Kyn with the human AHR receptor. […] These support our hypothesis that ICA displaces Kyn from AHR receptor and inhibited Kyn-mediated Treg differentiation through receptor competition."}, "[1]": {"conditions": "treatment alone vs αPD-1 therapy and control groups"}}, "data": [{"smiles": "O=Cc1c[nH]c2ccccc12", "note": "[IAld, indole-3-carboxaldehyde, reference compound]", "values": [{"measurement": "Treg differentiation, treatment alone", "setting": "CD4+ T cells; naïve CD4+ T cells, without Kyn", "result": "none significantly affected Treg differentiation"}]}, {"smiles": "CCCC(=O)[O-].[Na+]", "note": "[NaBu, sodium butyrate]", "values": [{"measurement": "efficiency of αPD-1 therapy in combination", "setting": "MC-38; combination of αPD-1 with R.i or NaBu", "result": "did not enhance the efficiency of αPD-1 therapy"}, {"measurement": "MC38 orthotopic tumour growth", "setting": "MC-38; monotreatment, R.i 1×10^8 CFU daily gavage, 150 mM NaBu in drinking water, αPD-1 100 μg per mouse", "result": "inhibited MC38 orthotopic tumour growth"}, {"measurement": "Granzyme B+, IFN-γ+ and TNF-α+ CD8+ T cells", "setting": "MC-38; mouse, in vivo", "result": "increased"}, {"measurement": "MDSCs", "setting": "MC-38; mouse, in vivo", "result": "decreasing MDSCs"}, {"measurement": "tumour infiltrating CD8+ T cells", "setting": "MC-38; mouse, in vivo", "result": "increased infiltrating CD8^+ T cells"}, {"measurement": "anti-tumour effects in combination with anti-PD-1", "setting": "CT-26; combination with anti-PD-1", "result": "further heightened the anti-tumour effects"}, {"measurement": "infiltrating and cytotoxic CD8+ T cells in combination with anti-PD-1", "setting": "CT-26; combination with anti-PD-1", "result": "additional effects on these immune cells"}, {"measurement": "proportion of MDSCs in tumours", "setting": "CT-26; monotherapy", "result": "reduced the proportion of MDSCs in tumours"}, {"measurement": "Granzyme B+, IFN-γ and TNF-α+ CD8+ T cells", "setting": "CT-26; monotreatment", "result": "significantly increased"}, {"measurement": "proportion of infiltrating CD8+ T cells", "setting": "CT-26; monotreatment", "result": "significantly increased"}, {"measurement": "tumour size", "setting": "CT-26; [1]", "result": "still reduced"}, {"measurement": "tumour weight", "setting": "CT-26; [1]", "result": "still reduced"}]}, {"smiles": "c1ccc(Cn2c(Sc3ncnc4c3sc3ncccc34)nnc2-c2ccncc2)cc1", "note": "[TH1020, reference compound]", "values": [{"measurement": "R.i CM- and butyrate-induced phospho-NF-κB under TLR5 antagonist", "setting": "NF-κB", "result": "inhibited by Th1020"}, {"measurement": "butyrate promotion of Granzyme B, IFN-γ and TNF-α in CD8+ T cells under TLR5 antagonist", "setting": "CD8+ T cells", "result": "abolished the effective promotion of butyrate on Granzyme B, IFN-γ and TNF-α in CD8+ T cells"}]}, {"smiles": "Cc1ccccc1N=Nc1ccc(NC(=O)c2ccnn2C)c(C)c1", "note": "[CH-233191, reference compound]", "values": [{"measurement": "Kyn and ICA effects on Treg differentiation", "setting": "CD4+ T cells; CH-233191 10 μM", "result": "abolished both Kyn and ICA effects in mediating Treg differentiation"}]}, {"smiles": "Nc1ccccc1C(=O)CC(N)C(=O)O", "note": "(centres unmarked) [Kyn, Kynurenine, reference compound]", "values": [{"measurement": "Treg differentiation", "setting": "CD4+ T cells; Kyn 50 μM, P<0.0001", "result": "significantly induced Treg differentiation"}, {"measurement": "effect of Kyn supplementation on ICA immune effects", "setting": "CT26", "result": "also reversed by Kyn supplementation"}, {"measurement": "effect of Kyn supplementation on ICA tumour effect", "setting": "CT26", "result": "reversed the effect of ICA"}, {"measurement": "Kd", "setting": "human AHR protein", "result": 61, "unit": "µM"}]}]}
